Source: patent US6307014A (priority 1998, dated 2001)

Columns and labels:
[1] = tested on: cholinergic synapse of the buccal ganglion; type: cell-based, Aplysia californica
[2] = tested on: postsynaptic acetylcholine (ACh) receptors; type: cell-based, Aplysia californica
young mice = conditions: mouse, in vivo
presynaptic Ca2+ current = type: cell-based, Aplysia californica

Substance: Gla Cys Cys Gla Asp Gly BrW Cys Cys Thr Ala Ala OHP [P11.1]
- amplitude of the postsynaptic response (IPSC) evoked by a presynaptic action potential, % of the initial value [1]: 40%
- reduction in the number of released quanta [1]: 60%
- distribution of mean amplitudes of miniature postsynaptic currents with respect to mean amplitude of the LDIPSC [2]: identical to control values
- effect on postsynaptic acetylcholine (ACh) receptors [2]: no effect
- dampening of the action potential (young mice): about 50%
- presynaptic Ca2+ current, % of the control value (presynaptic Ca2+ current): 70%
